Assay [1] has as its system Human acute myeloid leukemia cell line KG1. The assay can be described thus: FGFR-dependent tumor cell proliferation inhibition activity test (CCK-8, 72 h). Particulars: Homo sapiens, KG-1, KG1 cells. It is filed as cell-based. The source says:
Human acute myeloid leukemia cell line KG1 (FGFR1 fusion protein expressed in the cytoplasm, FGFR1-dependent tumor cell line) (ATCC, Cat. No. CCL-246), cell culture medium RPMI-1640 (Corning Cellgro, No. 10-040-CVR), fetal bovine serum (Life
Technologies, Cat. No. 10099-141) was purchased from the company; CCK-8 cell counting kit (DOJINDO, Cat. No. FK808). Adjustable wavelength microplate reader (Molecular Device, Cat. No. SpectraMax 190).
The inhibitory effect of the compound on KG1 proliferation was detected by CCK-8 Cell Counting Kit (Dojindo): Logarithmic growth phase cells were seeded in 96-well culture plate in appropriate density, 90 ul for each well. After cultured overnight, different concentrations of drugs were added and incubated for 72 h, while solvent control well was set (negative control). After the cells were treated by the compound for 72 h, 10 μL of CCK-8 reagent was added to each well. After incubated for 2-4 hours in a 37 □ incubator, the plate was read with SpectraMax 190 microplate reader at wavelength 450 nm.
The inhibition rate of compounds against cell proliferation is calculated by the following formula:
Inhibition rate (%)=(OD negative control well-OD administration well)/OD negative control well×100%.
(§1) The IC50 values were obtained by four-parameter regression analysis using the software supplied with the microplate reader.

The target of the next assay is T1, FGFR1 (Homo sapiens, UniProt P11362).
T1 construct: The reaction was initiated by addition of FGFR kinase domain recombinant protein diluted with 49 μL of reaction buffer; purchased Millipore 14-482
T1 sequence (P11362 478-767 limits assumed): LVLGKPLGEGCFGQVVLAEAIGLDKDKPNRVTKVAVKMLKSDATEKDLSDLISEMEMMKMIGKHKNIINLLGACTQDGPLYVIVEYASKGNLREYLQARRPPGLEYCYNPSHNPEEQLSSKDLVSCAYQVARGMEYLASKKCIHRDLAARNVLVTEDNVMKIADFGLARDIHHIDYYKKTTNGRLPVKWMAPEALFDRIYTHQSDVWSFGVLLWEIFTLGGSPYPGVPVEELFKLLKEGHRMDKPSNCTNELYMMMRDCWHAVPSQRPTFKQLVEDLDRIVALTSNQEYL
The assay can be described thus: FGFR kinase inhibitory activity experiment (ELISA, Poly(Glu,Tyr)4:1 substrate). Particulars: kinase recombinant protein FGFR1, ATP 5 μM. It is filed as biochemical. As to the method: Precision electronic balance (Sartotius, Cat. No. BP210D), adjustable wavelength microplate reader (Molecular Device, Cat. No. SpectraMax 190).
After the liquid was removed from the wells, the plate was washed for three times with 200 μL/well of T-PBS (PBS containing 0.1% Tween-20) for 5 minutes each time. The enzyme plate was dried at 37° C. in a dryer for 1-2 hours.
50 μL ATP solution diluted with reaction buffer (50 mM HEPES pH 7.4, 50 mM MgCl2, 0.5 mM MnCl2, 0.2 mM Na3VO4, 1 mM DTT) was added into each well at a 5 μM final concentration. The compounds were diluted to appropriate concentration in DMSO, 1 μL/well or containing the corresponding concentrations of DMSO (negative control wells). The reaction was initiated by addition of FGFR kinase domain recombinant protein diluted with 49 μL of reaction buffer. Two control wells without enzyme were set in each experiment. The plate was placed on a shaker (100 rpm) at 37° C. for 1 hour. The plate was washed with T-PBS for three times. 100 μL/well of primary antibody PY99 dilution was added, and incubated at 37° C. for 0.5 hour on a shaker (100 rpm). The plate was washed with T-PBS for three times. 100 μL/well of horseradish peroxidase-labeled secondary anti-goat anti-mouse IgG dilution was added and incubated at 37° C. for 0.5 hour on a shaker (100 rpm). The plate was washed with T-PBS for three times. 100 μL/well of 2 mg/mL OPD coloration solution (diluted with 0.1 M citric acid-sodium citrate buffer containing 0.03% H2O2 (pH=5.4)) was added, and incubated in darkness for 1-10 minutes at 25° C. The reaction was quenched with 50 μL/well 2M H2SO4, and read at 490 nm using a tunable microplate microplate reader SPECTRA MAX 190.
The inhibition ratio of the sample was determined by the following formula: […]
as §1
In general terms: In an ELISA, binding on a coated surface is turned into a signal by an enzyme label.

A word on the IC50: it is the point on the concentration scale where inhibition reaches its midpoint.

With `Cc1ccc2oc(-c3c4c(N)n[nH]c(=O)c4nn3-c3ccccc3)c(C)c2c1` [Compound A4, 4-amino-3-(3,5-dimethyl-1-benzofuran-2-yl)-2-phenyl-2,6-dihydro-7H-pyrazolo [3,4-d]pyridazine-7-one], in assay [1], the IC50 was 100 to 1000 nM.

As for `Cc1c(-c2c3c(N)n[nH]c(=O)c3nn2-c2ccccc2)oc2ccc(Cl)cc12` [Compound A7, 4-amino-3-(5-chloro-3-methyl-1-benzo-furan-2-yl)-2-phenyl-2,6-dihydro-7H-pyrazolo[3,4-d]pyridazin-7-one], the results for the IC50 (at FGFR1; in assay [1]) were less than 100 nM and 100 to 1000 nM, respectively.

On to `Cc1c(-c2c3c(N)n[nH]c(=O)c3nn2-c2ccccc2)oc2cc(F)ccc12` [Compound A8, 4-amino-3-(6-fluoro-3-methyl-1-benzo-furan-2-yl)-2-phenyl-2,6-dihydro-7H-pyrazolo[3,4-d]pyridazin-7-one], for which the figures for the IC50 (on FGFR1; in assay [1]) were less than 100 nM and 100 to 1000 nM, respectively.

Regarding `Cc1ccc2oc(-c3c4c(N)n[nH]c(=O)c4nn3-c3ccc(NCN(C)C)cc3)c(C)c2c1` [Compound A9, 4-amino-3-(3,5-dimethyl-1-benzofuran-2-yl)-2-(4-{[(dimethylamino)methyl]amino}phenyl)-2,6-dihydro-7H-pyrazolo[3,4-d]pyridazin-7-one], the 50% inhibitory concentration (IC50) is less than 100 nM at FGFR1 and 100 to 1000 nM in assay [1].

On to `CCC(=O)N1CCC(n2nc3c(=O)[nH]nc(N)c3c2-c2oc3ccc(C)cc3c2C)CC1` [Compound A10, 4-amino-3-(3,5-dimethyl-1-benzofuran-2-yl)-2-(1-propionylpiperidin-4-yl)-2,6-dihydro-7H-pyrazolo[3,4-d]pyridazin-7-one], for which the values for the IC50 (at FGFR1; in assay [1]) were less than 100 nM and 100 to 1000 nM, respectively.

As for `Cc1ccc2oc(-c3c4c(N)n[nH]c(=O)c4nn3-c3ccc(N(C)CCN(C)C)cc3)c(C)c2c1` [Compound A11, 4-amino-2-(4-{[2-(dimethylamino)ethyl] (methyl)amino}phenyl)-3-(3,5-dimethyl-1-benzofuran-2-yl)-2,6-dihydro-7H-pyrazolo[3,4-d]pyridazin-7-one], the IC50 at FGFR1 was less than 100 nM; in assay [1], 100 to 1000 nM.

Take `Cc1ccc2oc(-c3c4c(N)n[nH]c(=O)c4nn3-c3ccc(Cl)cc3)c(C)c2c1` [Compound A13, 4-amino-2-(4-chlorophenyl)-3-(3,5-dimethyl-1-benzofuran-2-yl)-2,6-dihydro-7H-pyrazolo[3,4-d]pyridazin-7-one]: the half-maximal inhibitory concentration (IC50) is less than 100 nM on FGFR1 and 100 to 1000 nM in assay [1].

Consider `CCN1CCC(n2nc3c(=O)[nH]nc(N)c3c2-c2oc3ccc(Cl)cc3c2C)CC1` [Compound A23, 4-amino-3-(5-chloro-3-methyl-1-benzo-furan-2-yl)-2-(1-ethylpiperidin-4-yl)-2,6-dihydro-7H-pyrazolo[3,4-d]pyridazin-7-one], for which the IC50 was less than 100 nM on FGFR1 and not above 100 nM in assay [1].

As for `CCN1CCC(n2nc3c(=O)[nH]nc(N)c3c2-c2oc3ccc(C)cc3c2C)CC1` [Compound A24, 4-amino-3-(3,5-dimethyl-1-benzofuran-2-yl)-2-(1-ethylpiperidin-4-yl)-2,6-dihy-dro-7H-pyrazolo[3,4-d]pyridazin-7-one], the IC50 at FGFR1 was less than 100 nM; in assay [1], not above 100 nM.

On to `Cc1ccc2oc(-c3c4c(N)n[nH]c(=O)c4nn3-c3ccc(NC(=O)/C=C/CN4CCC4)cc3)c(C)c2c1` [Compound A27, (2E)-N-{4-[4-amino-3-(3,5-dimethyl-1-benzofuran-2-yl)-7-carbonyl-6,7-dihydro-2H-pyrazolo[3,4-d]pyridazin-2-yl]phenyl}-4-(azetidin-1-yl)but-2-enamide], for which the IC50 was less than 100 nM on FGFR1 and not above 100 nM in assay [1].

As to `C=CC(=O)N1CCC(n2nc3c(=O)[nH]nc(N)c3c2-c2oc3ccc(C)cc3c2C)CC1` [Compound A29, 2-(1-acryloylpiperidin-4-yl)-4-amino-3-(3,5-dimethyl-1-benzofuran-2-yl)-2,6-dihydro-7H-pyrazolo[3,4-d]pyridazin-7-one], the results for the concentration for half-maximal inhibition (IC50) (at FGFR1; in assay [1]) were less than 100 nM and not above 100 nM, respectively.

For the molecule `Cc1ccc2oc(-c3c4c(N)n[nH]c(=O)c4nn3C3CCN(C(=O)/C=C/CN(C)C)CC3)c(C)c2c1` [Compound A30, 4-amino-2-{1-[(2E)-4-(dimethylamino)but-2-enoyl]piperidin-4-yl}-3-(3,5-dimethyl-1-benzofuran-2-yl)-2,6-dihydro-7H-pyrazolo[3,4-d]pyridazin-7-one], the IC50 on FGFR1 was less than 100 nM; in assay [1] it was not above 100 nM.

For `Cc1ccc2oc(-c3c4c(N)n[nH]c(=O)c4nn3C3CCN(C(=O)/C=C/CN4CCC4)CC3)c(C)c2c1` [Compound A31, 4-amino-2-{1-[(2E)-4-(azetidin-1-yl)but-2-enoyl]piperidin-4-yl}-3-(3,5-dimethyl-1-benzofuran-2-yl)-2,6-dihydro-7H-pyrazolo[3,4-d]pyridazin-7-one], the IC50 on FGFR1 is less than 100 nM.

For the molecule `C=CC(=O)Nc1ccc(-n2nc3c(=O)[nH]nc(N)c3c2-c2oc3ccc(C)cc3c2C)cc1N(C)CCN(C)C` [Compound A32, N-(4-[4-amino-3-(3,5-dimethyl-1-benzo-furan-2-yl)-7-carbonyl-6,7-dihydro-2H-pyrazolo[3,4-d]pyridazin-2-yl]-2-{[(dimethylamino)ethyl](methyl)amino}phenyl)prop-2-enamide], the half-inhibitory concentration (IC50) on FGFR1 is less than 100 nM.

On to `C=CC(=O)NC1CCC(n2nc3c(=O)[nH]nc(N)c3c2-c2oc3ccc(C)cc3c2C)CC1` (stereo not shown) [Compound A33, N-{4-[4-amino-3-(3,5-dimethyl-1-benzo-furan-2-yl)-7-carbonyl-6,7-dihydro-2H-pyrazolo[3,4-d]pyridazin-2-yl]cyclohexyl}prop-2-enamide], for which the IC50 at FGFR1 is less than 100 nM; in assay [1], not above 100 nM.

As for `Cc1ccc2oc(-c3c4c(N)n[nH]c(=O)c4nn3C3CCN(C(=O)/C=C/CN(C)C4CC4)CC3)c(C)c2c1` [Compound A34, 4-amino-2-(1-{(2E)-4-[cyclopropyl (methyl)amino]but-2-enoyl}piperidin-4-yl)-3-(3,5-dimethyl-1-benzofuran-2-yl)-2,6-dihydro-7H-pyrazolo[3,4-d] pyridazin-7-one], the half-inhibitory concentration (IC50) at FGFR1 is less than 100 nM.

As to `Cc1ccc2oc(-c3c4c(N)n[nH]c(=O)c4nn3C3CCC(NC(=O)CN(C)C)CC3)c(C)c2c1` (stereo not shown) [Compound A35, N-{4-[4-amino-3-(3,5-dimethyl-1-benzo-furan-2-yl)-7-carbonyl-6,7-dihydro-2H-pyrazolo[3,4-d]pyridazin-2-yl]cyclohexyl}-N,N-dimethylglycinamide], the IC50 was less than 100 nM at FGFR1 and 100 to 1000 nM in assay [1].

As for `Cc1ccc2oc(-c3c4c(N)n[nH]c(=O)c4nn3C3CCN(CCN(C)C)CC3)c(C)c2c1` [Compound A36, 4-amino-2-{1-[2-(dimethylamino)ethyl]piperidin-4-yl}-3-(3,5-dimethylbenzofuran-2-yl)-2H-pyrazolo[3,4-d]pyridazin-7(6H)-one], the IC50 on FGFR1 is less than 100 nM.

With `C=CC(=O)N1CCC(Cn2nc3c(=O)[nH]nc(N)c3c2-c2oc3ccc(C)cc3c2C)CC1` [Compound A38, 2-[(1-acryloylpiperidin-4-yl)methyl]-4-amino-3-(3,5-dimethyl-1-benzofuran-2-yl)-2,6-dihydro-7H-pyrazolo[3,4-d]pyridazin-7-one], the IC50 at FGFR1 is less than 100 nM.

Regarding `C=CC(=O)N1CC(Cn2nc3c(=O)[nH]nc(N)c3c2-c2oc3ccc(C)cc3c2C)C1` [Compound A45, 2-[(1-acryloylazetidin-3-yl)methyl]-4-amino-3-(3,5-dimethyl-1-benzofuran-2-yl)-2,6-dihydro-7H-pyrazolo[3,4-d] pyridazin-7-one], the IC50 at FGFR1 is less than 100 nM.

For the molecule `Cc1c(-c2c3c(N)n[nH]c(=O)c3nn2C2CCN(C(=O)/C=C/CNC3CC3)CC2)oc2ccc(Cl)cc12` [Compound A56, 4-amino-3-(5-chloro-3-methyl-1-benzo-furan-2-yl)-2-{1-[(2E)-4-(cyclopropyl-amino)but-2-enoyl]piperidin-4-yl}-2,6-dihydro-7H-pyrazolo[3,4-d]pyridazin-7-one], the IC50 on FGFR1 is less than 100 nM.

For the origin of these results see patent US20190135818A1 (SHANGHAI INSTITUTE OF MATERIA MEDICA, CHINESE ACADEMY OF …, priority 2016, published 2019).
